ChEMBL document CHEMBL1795203, “Synthesis and evaluation of highly potent GABA(A) receptor antagonists based on gabazine (SR-95531)” (Bioorg Med Chem Lett, 2011)

Biological target: T1, GABA-A receptor; alpha-1/beta-2/gamma-2 (Homo sapiens, UniProt P14867+P18507+P47870)
T1 sequence (P14867 whole entry): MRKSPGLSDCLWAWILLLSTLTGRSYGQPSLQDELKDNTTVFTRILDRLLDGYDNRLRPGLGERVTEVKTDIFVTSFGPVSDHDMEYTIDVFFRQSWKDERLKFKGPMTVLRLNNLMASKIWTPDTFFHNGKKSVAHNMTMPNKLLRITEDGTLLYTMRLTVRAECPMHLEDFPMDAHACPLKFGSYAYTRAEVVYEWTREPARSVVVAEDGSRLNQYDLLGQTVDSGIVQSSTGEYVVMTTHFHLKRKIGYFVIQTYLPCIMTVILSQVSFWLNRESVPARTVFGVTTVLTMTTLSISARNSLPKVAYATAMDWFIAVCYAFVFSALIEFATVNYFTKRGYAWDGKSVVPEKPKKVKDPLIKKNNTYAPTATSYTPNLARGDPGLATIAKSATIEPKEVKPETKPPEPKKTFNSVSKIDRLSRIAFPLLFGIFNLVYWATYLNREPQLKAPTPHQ
T1 sequence (P47870 whole entry): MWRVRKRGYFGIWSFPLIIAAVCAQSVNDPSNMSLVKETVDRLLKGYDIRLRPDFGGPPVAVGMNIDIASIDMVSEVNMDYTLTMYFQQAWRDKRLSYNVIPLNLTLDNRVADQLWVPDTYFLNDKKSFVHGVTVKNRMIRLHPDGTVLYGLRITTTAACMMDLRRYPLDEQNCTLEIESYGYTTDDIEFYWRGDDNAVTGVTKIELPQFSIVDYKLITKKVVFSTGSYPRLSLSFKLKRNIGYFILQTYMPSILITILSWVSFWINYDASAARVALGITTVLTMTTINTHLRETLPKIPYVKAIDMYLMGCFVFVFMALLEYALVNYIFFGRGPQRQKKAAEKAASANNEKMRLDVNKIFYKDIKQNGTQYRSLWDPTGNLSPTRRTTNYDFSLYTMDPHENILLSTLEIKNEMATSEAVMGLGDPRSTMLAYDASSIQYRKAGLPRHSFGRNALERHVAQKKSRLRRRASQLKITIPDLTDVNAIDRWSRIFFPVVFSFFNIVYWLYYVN
T1 sequence (P18507 whole entry): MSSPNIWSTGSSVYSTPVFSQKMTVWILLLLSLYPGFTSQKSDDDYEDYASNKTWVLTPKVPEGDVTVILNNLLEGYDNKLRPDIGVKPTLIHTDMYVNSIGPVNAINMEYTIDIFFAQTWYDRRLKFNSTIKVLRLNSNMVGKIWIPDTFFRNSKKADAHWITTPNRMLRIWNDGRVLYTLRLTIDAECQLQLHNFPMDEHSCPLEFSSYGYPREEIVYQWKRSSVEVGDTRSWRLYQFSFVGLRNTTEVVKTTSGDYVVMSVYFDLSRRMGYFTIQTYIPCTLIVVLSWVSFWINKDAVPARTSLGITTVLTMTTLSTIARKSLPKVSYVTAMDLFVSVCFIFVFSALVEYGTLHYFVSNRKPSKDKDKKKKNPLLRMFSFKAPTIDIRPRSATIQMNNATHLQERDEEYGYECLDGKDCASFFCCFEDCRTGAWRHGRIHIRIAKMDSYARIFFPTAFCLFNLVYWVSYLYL
Assay: Antagonist activity at human recombinant GABA A receptor alpha1beta2gamma2S expressed in HEK293 cells assessed as inhibition of GABA-induced current by patch clamp electrophysiology
Type: functional, cell-based

SMILES	IC50
N=c1ccc(-c2ccc(OCc3ccccc3)cc2)nn1CCCC(=O)O	0.011 µM
COc1ccc(-c2ccc(=N)n(CCCC(=O)O)n2)cc1 [GABAZINE]	0.349 µM
COc1cccc(COc2ccc(-c3ccc(=N)n(CCCC(=O)O)n3)cc2)c1	0.007 µM

Further compounds by falling IC50, results first:

IC50	SMILES
0.04 µM	C#CCOc1ccc(-c2ccc(=N)n(CCCC(=O)O)n2)cc1
0.003 µM	N=c1ccc(-c2ccc(OCc3cccc([N+](=O)[O-])c3)cc2)nn1CCCC(=O)O
